This note sets out measurements from patent publication US8808702B2, “Sulfide, sulfoxide and sulfone chalcone analogues, derivatives thereof and therapeutic uses thereof” (Temple University-of the Commonwealth System of Higher …, priority 2006, dated 2014).

Read-outs that look alike come from different tables or passages of the source.

By melting point is commonly meant the temperature of the solid-liquid transition. The term IC50 denotes the concentration that gives 50% inhibition.

Data set [1] deals with K562 (chronic myelogenous leukaemia). As to the kind of experiment: Effect of compounds on tumor cell lines (assay of Latham et al.), K562. The following applies: Homo sapiens, Table 4, K562 cells, examined 96 hours after treatment, 1 μM to 100 μM in DMSO. Type of data set: cell-based. The method in brief: (§1)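 K562 or DU145 cells plated at 2.5×10^4 cells/well, treated 24 h later with compound in DMSO at 1 μM to 100 μM (0.1 μM to 100 μM for one compound). Activity judged by microscopic observation after 96 h; where needed, viable cells counted by trypan blue exclusion.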

Another data set deals with DU145 (prostate cancer). Put plainly: Effect of compounds on tumor cell lines (assay of Latham et al.), DU145. To be noted: Homo sapiens, DU-145, Table 4, DU145 cells, examined 96 hours after treatment, 1 μM to 100 μM in DMSO. The class given is cell-based. The essentials: as §1
The mark [2] stands for this setting: read-out: DU 145 potency (IC50).
[3] abbreviates: read-out: K 562 potency (IC50), given as number.

As for `Cc1ccc(C)c(/C=C(\C(=O)c2ccc(Br)cc2)S(=O)(=O)Cc2ccc(F)cc2)c1` [Example 401], the melting point fell in the range of 167 to 173 °C. The IC50 in data set [1] (read-out: K 562 potency (IC50)) fell in the range of 1 to 10 µM. Besides, in the data set with DU145 (prostate cancer) (setting [2]), the IC50 was 1 to 10 µM.

For the molecule `O=C(/C(=C\c1cc([N+](=O)[O-])ccc1F)S(=O)(=O)Cc1ccc(F)cc1)c1ccc(Br)cc1` [Example 403], the melting point lay within 172 to 177 °C. In data set [1] (read-out: K 562 potency (IC50)), the concentration for half-maximal inhibition (IC50) lay in the range of 50 to 100 µM. Further, the IC50 with DU145 (prostate cancer) (setting [2]) was over 100 µM.

As to `Cc1cc(C)cc(/C=C(\C(=O)c2ccc(Br)cc2)S(=O)(=O)Cc2ccc(F)cc2)c1` [Example 405], the melting point lay within 140 to 143 °C. In addition, the IC50 in data set [1] (read-out: K 562 potency (IC50)) was in the range of 10 to 25 µM. For the same molecule, the IC50 in the data set on DU145 (prostate cancer) (setting [2]) was 10 to 25 µM.

`O=C(/C(=C\c1c[nH]c2ccccc12)S(=O)(=O)Cc1ccc(F)cc1)c1ccc(Cl)cc1` [Example 406]: the melting point is over 200 °C. In data set [1] (read-out: K 562 potency (IC50)), the IC50 lay in the range of 50 to 100 µM. In the data set on DU145 (prostate cancer) (setting [2]), the half-maximal inhibitory concentration (IC50) lay within 50 to 100 µM.

Consider `Cc1ccsc1/C=C(\C(=O)c1ccc(Cl)cc1)S(=O)(=O)Cc1ccc(F)cc1` [Example 407], for which the melting point fell in the range of 146 to 158 °C. Moreover, in data set [1] (read-out: K 562 potency (IC50)), the IC50 was 1 to 10 µM. The IC50 in the data set with DU145 (prostate cancer) (setting [2]) was 10 to 25 µM.

The molecule `CN(C)c1ccc(/C=C(\C(=O)c2ccc(Br)cc2)S(=O)(=O)Cc2ccc(F)cc2)cc1` [Example 408] had a melting point of 155 to 162 °C. Moreover, the half-inhibitory concentration (IC50) in data set [1] (read-out: K 562 potency (IC50)) is 50 to 100 µM. The IC50 in the data set on DU145 (prostate cancer) (setting [2]) was in the range of 50 to 100 µM.

`O=C(/C(=C\c1ccc(Br)cc1)S(=O)(=O)Cc1ccc(F)cc1)c1ccc(Br)cc1` [Example 409]: the melting point was 164 to 168 °C. For the same molecule, the half-maximal inhibitory concentration (IC50) in data set [1] (read-out: K 562 potency (IC50)) lay within 10 to 25 µM. In addition, the IC50 with DU145 (prostate cancer) (setting [2]) was 25 to 50 µM.

As for `CCOc1ccc(/C=C(\C(=O)c2ccc(Cl)cc2)S(=O)(=O)Cc2ccc(F)cc2)cc1OC` [Example 412], the melting point is 145 to 149 °C. Besides, the IC50 in data set [1] (read-out: K 562 potency (IC50)) lay within 25 to 50 µM. Besides, the IC50 in the data set with DU145 (prostate cancer) (setting [2]) lay within 50 to 100 µM.

As to `O=C(/C(=C\c1ccc(Br)cc1)S(=O)(=O)Cc1ccc(I)cc1)c1ccc(Br)cc1` [Example 418], the melting point was 168 to 170 °C. The concentration for half-maximal inhibition (IC50) in data set [1] (setting [3]) is over 50 µM. Further, the IC50 in the data set with DU145 (prostate cancer) (read-out: DU 145 potency (IC50), given as number) was over 50 µM.

On to `O=C(/C(=C\c1ccc(Br)cc1)S(=O)(=O)Cc1ccc(I)cc1)c1ccc(I)cc1` [Example 419, (E)-1-(4-Iodophenyl)-2-(4-iodobenzylsulfonyl)-3-(4-bromophenyl)prop-2-en-1-one], for which the melting point fell in the range of 180 to 182 °C. In addition, in data set [1] (read-out: K 562 potency (IC50)), the 50% inhibitory concentration (IC50) fell in the range of 25 to 50 µM. Also, the concentration for half-maximal inhibition (IC50) in the data set on DU145 (prostate cancer) (setting [2]) lay within 25 to 50 µM.

The molecule `O=C(/C(=C\c1ccc(I)cc1)S(=O)(=O)Cc1ccc(I)cc1)c1ccc(Br)cc1` [Example 420, (E)-1-(4-bromophenyl)-2-(4-iodobenzylsulfonyl)-3-(4-iodophenyl)-prop-2-en-1-one] came in with a melting point of 160 to 162 °C. Also, the IC50 in data set [1] (setting [3]) is over 50 µM. Besides, the IC50 with DU145 (prostate cancer) (setting [2]) was in the range of 25 to 50 µM.

For `O=C(/C(=C\c1ccc(I)cc1)S(=O)(=O)Cc1ccc(I)cc1)c1ccc(I)cc1` [Example 421, (E)-1-(4-iodophenyl)-2-(4-iodobenzylsulfonyl)-3-(4-iodophenyl)-prop-2-en-1-one], the melting point is 175 to 177 °C. The IC50 in data set [1] (setting [3]) was over 50 µM. Further, in the data set with DU145 (prostate cancer) (setting [2]), the IC50 was 25 to 50 µM.

On to `Cc1ccc(CS(=O)(=O)/C(=C/c2cccc(Cl)c2Cl)C(=O)c2ccc(Cl)cc2)cc1` [Example 423], for which the melting point is 162 to 165 °C. Moreover, the IC50 in data set [1] (read-out: K 562 potency (IC50)) was in the range of 1 to 10 µM. Besides, the IC50 with DU145 (prostate cancer) (setting [2]) was in the range of 1 to 10 µM.

The molecule `Cc1ccc(CS(=O)(=O)/C(=C/c2c(O)cc(O)cc2O)C(=O)c2ccc(Cl)cc2)cc1` [Example 424] gave a melting point of 167 to 180 °C. In addition, the 50% inhibitory concentration (IC50) in data set [1] (read-out: K 562 potency (IC50)) is over 100 µM. Further, in the data set with DU145 (prostate cancer) (setting [2]), the 50% inhibitory concentration (IC50) is over 100 µM.

With `Cc1ccc(CS(=O)(=O)/C(=C/c2cc(C)ccc2C)C(=O)c2ccc(Cl)cc2)cc1` [Example 425], the melting point was 176 to 182 °C. Moreover, the half-inhibitory concentration (IC50) in data set [1] (read-out: K 562 potency (IC50)) was 1 to 10 µM. Also, the IC50 with DU145 (prostate cancer) (setting [2]) fell in the range of 1 to 10 µM.

The molecule `Cc1ccc(CS(=O)(=O)/C(=C/c2ccccc2OCc2ccccc2)C(=O)c2ccc(Cl)cc2)cc1` [Example 426] registered a melting point of 112 to 129 °C. In addition, in data set [1] (read-out: K 562 potency (IC50)), the IC50 lay in the range of 1 to 10 µM. Moreover, the half-maximal inhibitory concentration (IC50) in the data set with DU145 (prostate cancer) (setting [2]) is 1 to 10 µM.

`Cc1ccc(CS(=O)(=O)/C(=C/c2cc(C)cc(C)c2)C(=O)c2ccc(Cl)cc2)cc1` [Example 429] gave a melting point of 169 to 178 °C. Further, the IC50 in data set [1] (read-out: K 562 potency (IC50)) was in the range of 10 to 25 µM. Moreover, the half-inhibitory concentration (IC50) in the data set on DU145 (prostate cancer) (setting [2]) was in the range of 10 to 25 µM.

For the molecule `Cc1ccc(CS(=O)(=O)/C(=C/c2c[nH]c3ccccc23)C(=O)c2ccc(Cl)cc2)cc1` [Example 430], the melting point is 160 to 165 °C. For the same molecule, in data set [1] (read-out: K 562 potency (IC50)), the 50% inhibitory concentration (IC50) is over 100 µM. The IC50 in the data set on DU145 (prostate cancer) (setting [2]) lay in the range of 25 to 50 µM.

`Cc1ccc(CS(=O)(=O)/C(=C/c2sccc2C)C(=O)c2ccc(Cl)cc2)cc1` [Example 431]: the melting point lay in the range of 98 to 105 °C. For the same molecule, the IC50 in data set [1] (read-out: K 562 potency (IC50)) was in the range of 25 to 50 µM. Moreover, the 50% inhibitory concentration (IC50) with DU145 (prostate cancer) (setting [2]) was in the range of 25 to 50 µM.

Molecule `Cc1ccc(CS(=O)(=O)/C(=C/c2ccc(N(C)C)cc2)C(=O)c2ccc(Cl)cc2)cc1` [Example 432] showed a melting point of 150 to 154 °C. The IC50 in data set [1] (read-out: K 562 potency (IC50)) is 50 to 100 µM. The IC50 in the data set on DU145 (prostate cancer) (setting [2]) fell in the range of 50 to 100 µM.

In the case of `Cc1ccc(CS(=O)(=O)/C(=C/c2ccc(Br)cc2)C(=O)c2ccc(Cl)cc2)cc1` [Example 433], the melting point lay within 160 to 165 °C. The half-inhibitory concentration (IC50) in data set [1] (read-out: K 562 potency (IC50)) fell in the range of 10 to 25 µM. Moreover, the IC50 in the data set with DU145 (prostate cancer) (setting [2]) was 25 to 50 µM.

`Cc1ccc(CS(=O)(=O)/C(=C/c2ccc(Cl)cc2)C(=O)c2ccc(Cl)cc2)cc1` [Example 434] came in with a melting point of 128 to 133 °C. Moreover, in data set [1] (read-out: K 562 potency (IC50)), the half-maximal inhibitory concentration (IC50) lay in the range of 25 to 50 µM. Moreover, the concentration for half-maximal inhibition (IC50) in the data set with DU145 (prostate cancer) (setting [2]) was in the range of 25 to 50 µM.

Molecule `CCOc1ccc(/C=C(\C(=O)c2ccc(Cl)cc2)S(=O)(=O)Cc2ccc(C)cc2)cc1OC` [Example 435] showed a melting point of 65 to 72 °C. Moreover, the 50% inhibitory concentration (IC50) in data set [1] (read-out: K 562 potency (IC50)) lay in the range of 10 to 25 µM. In the data set on DU145 (prostate cancer) (setting [2]), the IC50 lay within 10 to 25 µM.

`CSc1ccc(/C=C(\C(=O)c2ccc(Cl)cc2)S(=O)(=O)Cc2ccc(C)cc2)cc1` [Example 437] gave a melting point of 140 to 152 °C. Further, the IC50 in data set [1] (read-out: K 562 potency (IC50)) lay within 25 to 50 µM. Also, the half-inhibitory concentration (IC50) in the data set with DU145 (prostate cancer) (setting [2]) lay within 10 to 25 µM.

Consider `Cc1ccc(CS(=O)(=O)/C(=C/c2ccc(S(C)(=O)=O)cc2)C(=O)c2ccc(Br)cc2)cc1` [Example 438], for which the melting point fell in the range of 110 to 112 °C. For the same molecule, in data set [1] (read-out: K 562 potency (IC50)), the IC50 is 1 to 10 µM. In addition, the IC50 in the data set with DU145 (prostate cancer) (setting [2]) is 10 to 25 µM.

In turn, `Cc1ccc(CS(=O)(=O)/C(=C/c2c[nH]c3ccc(Br)cc23)C(=O)c2ccc(Cl)cc2)cc1` [Example 439] registered a melting point of 186 to 195 °C. For the same molecule, the IC50 in data set [1] (read-out: K 562 potency (IC50)) lay in the range of 10 to 25 µM. For the same molecule, the IC50 with DU145 (prostate cancer) (setting [2]) fell in the range of 10 to 25 µM.

The molecule `Cc1ccc(CS(=O)(=O)/C(=C/c2ccc(C)s2)C(=O)c2ccc(Cl)cc2)cc1` [Example 440] yielded a melting point of 171 to 178 °C. Moreover, the IC50 in data set [1] (read-out: K 562 potency (IC50)) fell in the range of 25 to 50 µM. The 50% inhibitory concentration (IC50) in the data set with DU145 (prostate cancer) (setting [2]) lay within 25 to 50 µM.
